Source: patent US8420653B2, “Pyrimidine compounds and their uses” (Orchid Chemicals & Pharmaceuticals Limited, priority 2008, dated 2013)

Columns and labels:
IL-6 = test: In vitro measurement of Interleukin-6 in human PBMC; type: cell-based; details: Table XVa summary
Protocol: In Vitro Measurement of Interleukin-6 (IL-6)
This assay determines the effect of test compounds on the production of IL-6 in human PBMC (Physiol. Res. 52, 593-598, 2003). Compounds were tested for their ability to inhibit the activity of IL-6 in human PBMC. PBMC were isolated from blood using BD Vacutainer CPT™ Cell preparation tube (BD Bio Science) and suspended in RPMI medium. The test compounds were pre-incubated with PBMC (0.5 million/incubation well) for 15 minutes at 37° C. and then stimulated with Lipopolysaccharide (Escherichia coli: B4; 1 μg/ml) for 18 hours at 37° C. in 5% CO2. The levels of IL-6 in cell culture medium were estimated using enzyme-linked immunosorbent assay performed in a 96 well format as per the procedure of the manufacturer (Cayman Chemical, Ann Arbor, USA).

PDE4 = tested on: T1, PDE4; test: PDE4 activity (source human U937 cells); type: biochemical; details: for PDE4 inhibition at 10 μM (%): source human U937 cells; for PDE4 at 10 μm: Table XVb summary
T1 construct: other: 10 μM, source human U937 cells; PDE4 at 10 μm
Protocol: PDE4 inhibition was measured by following a literature assay procedure (Cortizo J et al., Br J. Pharmacol., 1993, 108: 562-568. The assay method involves the following conditions.
Substrate: 1.01 μM [^3H] camp+camp
Pre-Incubation Time/Temperature: 15 minutes at 25° C.
Incubation Time/Temperature. 20 minutes at 25° C.
Incubation buffer: 50 mM Tris-HCl, pH 7.5, 5 mM MgCl2
Quantitation method: Quantitation of [^3H] Adenosine
Significance criteria: ≧50% of max stimulation or inhibition

[1] = tested on: purified recombinant COX-1; test: COX-1 enzyme based assay; type: biochemical
Protocol: COX-1 and COX-2 enzyme based assays were carried out to check the inhibitory potential of the test compounds on the production of prostaglandin by purified recombinant COX-1/COX-2 enzyme (Proc. Nat. Acad. Sci. USA, 88, 2692-2696, 1991; J. Clin. Immunoassay 15, 116-120, 1992). In this assay, the potential of the test compound to inhibit the production of prostaglandin either by COX-1 or COX-2 from arachidonic acid (substrate) was measured. This was an enzyme based in-vitro assay to evaluate selective COX inhibition with good reproducibility.
Arachidonic acid was converted to PGH2 (Intermediate product) by COX1/COX-2 in the presence or absence of the test compound. The reaction was carried out at 37° C. and after 2 minutes it was stopped by adding 1M HCl. Intermediate product PGH2 was converted to a stable prostanoid product PGF2α by SnCl2 reduction. The amount of PGF2α produced in the reaction was inversely proportional to the COX inhibitory potential of the test compound. The prostanoid product was quantified via enzyme immunoassay (EIA) using a broadly specific antibody that binds to all the major forms of prostaglandin, using Cayman ELISA kit as per the procedure outlined by the manufacturer (Cayman Chemicals, Ann Arbor, USA).

TNF-α = test: In vitro measurement of TNF-α in human PBMC; type: cell-based; details: for inhibition at 1 µM: Conc. (1 μM); for inhibition at 10 µM: Conc. (10 μM)
Protocol: In Vitro Measurement of TNF-α in Human Peripheral Blood Mononuclear Cells
This assay determines the effect of test compounds on the production of TNF a in human Peripheral Blood Mononuclear Cells (PBMC). Compounds were tested for their ability to inhibit the activity of TNF α in human PBMC. PBMC were isolated from blood (of healthy volunteers) using BD Vacutainer CPT™ (Cell preparation tube, BD Bio Science) and suspended in RPMI medium (Physiol. Res. 52, 593-598, 2003). The test compounds were pre-incubated with PBMC (0.5 million/incubation well) for 15 minutes at 37° C. and then stimulated with Lipopolysaccharide (Escherichia coli: B4; 1 μg/ml) for 18 hours at 37° C. in 5% CO2. The levels of TNF-α in the cell culture medium were estimated using enzyme-linked immunosorbent assay performed in a 96 well format as per the procedure of the manufacturer (Cayman Chemical, Ann Arbor, USA).

DSS Induced colitis = test: IBD-DSS model (DSS induced colitis); type: in vivo, mice; details: Table XVb summary
Protocol: Inhibitory Activity in IBD-DSS Model
DSS Induced colitis test was performed as described by Axelsson et al., 1998. Male Balb/c mice were selected in the age of 7-8 weeks for the study. Colitis in mice was induced by providing DSS (2%) in the drinking water from day 1 to 6. Mice were dosed from Day 1 to 6 with test compound suspended in vehicle containing 0.25% carboxymethyl cellulose and 0.5% Tween 80. The control animals received vehicle alone. Body weight and disease activity index was recorded daily during the experiment. After 6 days of treatment, animals were sacrificed; colon weight and colon length was recorded.

TPA induced dermatitis = test: Psoriasis model, TPA induced dermatitis; type: in vivo; details: mice, topical on the ears
Protocol: Inhibitory Activity in Psoriasis Model TPA induced dermatitis in mice was performed using the protocol described in Eur J Pharmacol 507, 253-259, 2005. Balb/c mice were acclimatized to laboratory conditions 5-7 days prior to the start of the experiment. They were randomly distributed to various groups based on body weight. The baseline ear thickness of the animal's both ears using thickness gauge was measured. For each animal 20 μl of that contains 2.5 μg of TPA was applied with help of micropipettor with disposable tips. Test compound was applied topically to both inner and outer surface of the both the ears i.e. left and right ear with acetone as control after 30 minutes 6 hours and 24 hours after application of TPA (20 μl). Ear thickness was measured after 6 and 24 hours in animals, while for ear weight ears were excised under anesthesia and weighed.

[2] = tested on: Oxazolone induced dermatitis; test: Psoriasis model, oxazolone induced dermatitis; type: in vivo, mice; details: Table XVb summary, dermatitis model not specified
Protocol: Inhibitory Activity in Psoriasis Model Oxazolone induced dermatitis in mice was performed as described in the literature. Female Balb/c were selected in the age of 6-7 weeks for the study and 20-25 g. Mice were sensitized with oxazolone (15%) from Day 1 to day 6 by applying it on the shaved abdomen. Elicitation was done with oxazolone (2%) on the ear on day 7. Test compounds were applied topically on the ear 15 minutes and 6 hours post oxazolone application on day 7. 24 hours after oxazolone application, ear thickness is measured and ear were excised under anesthesia and weighed.

With CCOC(=O)C1CCN(c2nc(C(F)(F)F)nc(-c3ccc(F)cc3)c2-c2cccc(S(N)(=O)=O)c2)CC1 [Example 59, Ethyl-1-[5-(3-aminosulfonylphenyl)-6-(4-fluorophenyl)-2-(trifluoromethyl)pyrimidin-4-yl]piperidine-4-carboxylate] the “IL-6 at 10 μm” value (IL-6) was 37, the “PDE4 inhibition at 10 μM (%)” value (PDE4) was 93% and the “PDE4 at 10 μm” value (PDE4) was 87. For the same compound, the “% Inhibition in rEnzyme Assay COX-1” value ([1]; 10 μM) was 32%, the “COX1 at 10 μm” value ([1]; Table XVa summary, 10 μm) was 32 and the inhibition at 1 µM (TNF-α) was 87%. The inhibition at 10 µM (TNF-α) was 92%.
For NS(=O)(=O)c1cccc(-c2c(-c3ccc(F)cc3)nc(C(F)(F)F)nc2-n2ccnc2)c1 [Example 80, 3-[4-(4-Fluorophenyl)-6-(1H-imidazol-1-yl)-2-(trifluoromethyl)pyrimidin-5-yl]benzenesulfonamide], the “PDE4 inhibition at 10 μM (%)” value (PDE4) was 87%, the “PDE4 at 10 μm” value (PDE4) was 93 and the “IBD DAI” value (DSS Induced colitis) was 35. The “Psoriasis-acute TPA induced dermatitis % inhibition Ear Wt” value (TPA induced dermatitis) was 18.9%, the “Psoriasis-acute TPA induced dermatitis % inhibition Ear thickness” value (TPA induced dermatitis) was 19.2% and the inhibition at 1 µM (TNF-α) was 50%. For the same compound, the inhibition at 10 µM (TNF-α) was 78% and the “Psoriasis Ear thickness” value [2] was 19.
